{"source": "patent US20100305120A1", "about": "“COMPOUNDS FOR TREATING MUSCULAR DYSTROPHY” (BIOMARIN IGA LIMITED, priority 2008, published 2010)", "data": [{"tested_on": "Utrophin A promoter linked to a luciferase reporter gene", "test": "Luciferase reporter assay (murine H2K cells), H2K/mdx/Utro A reporter cell line", "type": "cell-based", "conditions": "48 h; test compound concentration 0.3 μM; mdx mouse H2K Utrophin A reporter cells; read-out: Activity (luciferase level relative to control)", "protocol": "(§1) Luciferase Reporter Assay (Murine H2K Cells)\n(§2) The cell line used for the screen is an immortalized mdx mouse H2K cell line that has been stably transfected with a plasmid containing ≈5 kb fragment of the Utrophin A promoter including the first untranslated exon linked to a luciferase reporter gene.\n(§3) Under conditions of low temperature and interferon containing media, the cells remain as myoblasts. These are plated into 96 well plates and cultured in the presence of compound for three days. The level of luciferase is then determined by cell lysis and reading of the light output from the expressed luciferase gene utilising a plate luminometer.\n(§4) Luciferase Assay for 96 Well Plates\n(§5) The H2K/mdx/Utro A reporter cell line cells were plated out into 96 well plates (Falcon 353296, white opaque) at a density of approximately 5000 cells/well in 190 μl normal growth medium. The plates were then incubated at 33° C. in the presence of 10% CO2 for 24 hrs.\n(§6) Compounds were dosed by adding 10 μl of diluted compound to each well giving a final concentration of 10 μM (where a different final concentration was required, the amount of compound solution added was amended accordingly). The plates were then incubated for a further 48 hrs. Cells were then lysed in situ following the manufacture's protocols (Promega Steady-Glo Luciferase Assay System(E2520). Then counted for 10 seconds using a plate luminometer (Victor1420).\n(§7) Compounds for screening were stored at −20° C. as 10 mM stocks in 100% DMSO until required.\n(§8) Biological activity as assessed using the luciferase reporter assay in murine H2K cells, and the results are shown in Table 1, which also lists the concentration of the test compound solution in μM.", "units": {"activity at 0.3 µM": "%"}, "values": [{"smiles": "CS(=O)(=O)c1ccc(Cn2nc(CNc3ccc4c(c3)OCO4)c3ccccc32)cc1", "note": "[Compound 90, N-((1-(4-(methylsulfonyl)benzyl)-1H-indazol-3-yl)methyl)benzo[d][1,3]dioxol-5-amine]", "activity at 0.3 µM": "< 200"}]}, {"tested_on": "Utrophin A promoter linked to a luciferase reporter gene", "test": "Luciferase reporter assay (murine H2K cells), H2K/mdx/Utro A reporter cell line", "type": "cell-based", "conditions": "48 h; test compound concentration 3 μM; mdx mouse H2K Utrophin A reporter cells; read-out: Activity (luciferase level relative to control)", "protocol": "as §1, §2, §3, §4, §5, §6, §7, §8", "units": {"activity at 3 µM": "%"}, "values": [{"smiles": "CS(=O)(=O)c1ccc(Cn2nc(C(=O)Nc3ccc(O)cc3)c3ccccc32)cc1", "note": "[Compound 88, N-(4-hydroxyphenyl)-1-(4-(methylsulfonyl)benzyl)-1H-indazole-3-carboxamide]", "activity at 3 µM": "< 200"}, {"smiles": "O=C(Nc1ccc2c(c1)OCO2)c1nn(CCc2ccc(C(=O)N3CCOCC3)cc2)c2ccccc12", "note": "[Compound 92, N-(benzo[d][1,3]dioxol-5-yl)-1-(4-(morpholine-4-carbonyl)phenethyl)-1H-indazole-3-carboxamide]", "activity at 3 µM": "< 200"}]}, {"tested_on": "Utrophin A promoter linked to a luciferase reporter gene", "test": "Luciferase reporter assay (murine H2K cells), H2K/mdx/Utro A reporter cell line", "type": "cell-based", "conditions": "48 h; test compound concentration 10 μM; mdx mouse H2K Utrophin A reporter cells; read-out: Activity (luciferase level relative to control)", "protocol": "as §1, §2, §3, §4, §5, §6, §7, §8", "units": {"activity at 10 µM": "%"}, "values": [{"smiles": "COc1cccc(OCc2ccc(Cn3nc(NC(=O)Nc4ccccc4OC(F)(F)F)c4ccccc43)cc2)c1", "note": "[Compound 68, 1-(1-(4-((3-methoxyphenoxy)methyl)benzyl)-1H-indazol-3-yl)-3-(2-(trifluoromethoxy)phenyl)urea]", "activity at 10 µM": "< 200"}, {"smiles": "O=C(Nc1ccc(N2CCCCC2)cc1)c1nn(Cc2ccc(-c3ccccc3)cc2)c2ccccc12", "note": "[Compound 69, 1-(biphenyl-4-ylmethyl)-N-(4-(piperidin-1-yl)phenyl)-1H-indazole-3-carboxamide]", "activity at 10 µM": "< 200"}, {"smiles": "CC(C)(C)c1ccc(Cn2nc(C(=O)Nc3ccc(OC(F)(F)F)cc3)c3ccccc32)cc1", "note": "[Compound 70, 1-(4-tert-butylbenzyl)-N-(4-(trifluoromethoxy)phenyl)-1H-indazole-3-carboxamide]", "activity at 10 µM": "< 200"}, {"smiles": "O=C(Nc1nccs1)c1nn(CCOc2ccccc2)c2ccccc12", "note": "[Compound 71, 1-(2-phenoxyethyl)-N-(thiazol-2-yl)-1H-indazole-3-carboxamide]", "activity at 10 µM": "< 200"}, {"smiles": "O=C(NCC1CCCO1)c1nn(Cc2ccc(C(=O)N3CCOCC3)cc2)c2ccccc12", "note": "(centres unmarked) [Compound 72, 1-(4-(morpholine-4-carbonyl)benzyl)-N-((tetrahydrofuran-2-yl)methyl)-1H-indazole-3-carboxamide]", "activity at 10 µM": "< 200"}, {"smiles": "COc1ccc(CCNC(=O)Nc2nn(Cc3ccc(C(F)(F)F)cc3)c3ccccc23)cc1OC", "note": "[Compound 73, 1-(3,4-dimethoxyphenethyl)-3-(1-(4-(trifluoromethyl)benzyl)-1H-indazol-3-yl)urea]", "activity at 10 µM": "< 200"}, {"smiles": "COc1ccc(NC(=O)c2nn(Cc3ccc(-c4ccccc4)cc3)c3ccccc23)cc1", "note": "[Compound 74, 1-(biphenyl-4-ylmethyl)-N-(4-methoxyphenyl)-1H-indazole-3-carboxamide]", "activity at 10 µM": "< 200"}, {"smiles": "O=C(Nc1ccc(N2CCCCC2)cc1)c1nn(CCOc2ccccc2)c2ccccc12", "note": "[Compound 75, 1-(2-phenoxyethyl)-N-(4-(piperidin-1-yl)phenyl)-1H-indazole-3-carboxamide]", "activity at 10 µM": "201 to 300"}, {"smiles": "C#CCN(C)S(=O)(=O)c1ccc(Cn2nc(C(=O)Nc3ccc(C(N)=O)cc3)c3ccccc32)cc1", "note": "[Compound 76, N-(4-carbamoylphenyl)-1-(4-(N-methyl-N-(prop-2-ynyl)sulfamoyl)benzyl)-1H-indazole-3-carboxamide]", "activity at 10 µM": "< 200"}, {"smiles": "CS(=O)(=O)c1ccc(Cn2nc(C(=O)Nc3ccccn3)c3ccccc32)cc1", "note": "[Compound 77, 1-(4-(methylsulfonyl)benzyl)-N-(pyridin-2-yl)-1H-indazole-3-carboxamide]", "activity at 10 µM": "< 200"}, {"smiles": "COc1ccccc1CNC(=O)Nc1nn(Cc2cc3c(cc2Cl)OCO3)c2ccccc12", "note": "[Compound 78, 1-(1-((6-chlorobenzo[d][1,3]dioxol-5-yl)methyl)-1H-indazol-3-yl)-3-(2-methoxybenzyl)urea]", "activity at 10 µM": "< 200"}, {"smiles": "CC(C)(C)c1ccc(Cn2nc(C(=O)Nc3ccc(N4CCCCC4)cc3)c3ccccc32)cc1", "note": "[Compound 79, 1-(4-tert-butylbenzyl)-N-(4-(piperidin-1-yl)phenyl)-1H-indazole-3-carboxamide]", "activity at 10 µM": "< 200"}, {"smiles": "COc1ccc(CCNC(=O)Nc2nn(Cc3ccc(COc4cccc(OC)c4)cc3)c3ccccc23)cc1", "note": "[Compound 80, 1-(4-methoxyphenethyl)-3-(1-(4-((3-methoxyphenoxy)methyl)benzyl)-1H-indazol-3-yl)urea]", "activity at 10 µM": "< 200"}, {"smiles": "CC(C)(C)c1ccc(NC(=O)c2nn(Cc3ccc(S(C)(=O)=O)cc3)c3ccccc23)cc1", "note": "[Compound 81, N-(4-tert-butylphenyl)-1-(4-(methylsulfonyl)benzyl)-1H-indazole-3-carboxamide]", "activity at 10 µM": "< 200"}, {"smiles": "COc1ccc(NC(=O)c2nn(Cc3ccc(S(C)(=O)=O)cc3)c3ccccc23)cc1OC", "note": "[Compound 82, N-(3,4-dimethoxyphenyl)-1-(4-(methylsulfonyl)benzyl)-1H-indazole-3-carboxamide]", "activity at 10 µM": "< 200"}, {"smiles": "CS(=O)(=O)c1ccc(Cn2nc(C(=O)Nc3ccccc3)c3ccccc32)cc1", "note": "[Compound 83, N-phenyl-1-(4-(methylsulfonyl)benzyl)-1H-indazole-3-carboxamide]", "activity at 10 µM": "< 200"}, {"smiles": "CCc1ccc(NC(=O)c2nn(Cc3ccc(S(C)(=O)=O)cc3)c3ccccc23)cc1", "note": "[Compound 84, N-(4-ethylphenyl)-1-(4-(methylsulfonyl)benzyl)-1H-indazole-3-carboxamide]", "activity at 10 µM": "301 to 400"}, {"smiles": "CC(C)c1ccccc1NC(=O)c1nn(Cc2ccc(S(C)(=O)=O)cc2)c2ccccc12", "note": "[Compound 85, N-(2-isopropylphenyl)-1-(4-(methylsulfonyl)benzyl)-1H-indazole-3-carboxamide]", "activity at 10 µM": "< 200"}, {"smiles": "COc1cccc(NC(=O)c2nn(Cc3ccc(S(C)(=O)=O)cc3)c3ccccc23)c1", "note": "[Compound 86, N-(3-methoxyphenyl)-1-(4-(methylsulfonyl)benzyl)-1H-indazole-3-carboxamide]", "activity at 10 µM": "< 200"}, {"smiles": "O=C(Nc1ccc2c(c1)OCO2)c1nn(Cc2ccccc2)c2ccccc12", "note": "[Compound 87, N-(benzo[d][1,3]dioxol-5-yl)-1-benzyl-1H-indazole-3-carboxamide]", "activity at 10 µM": "< 200"}, {"smiles": "CS(=O)(=O)c1ccc(Cn2nc(C(=O)Nc3ccc(Cl)cc3)c3ccccc32)cc1", "note": "[Compound 89, N-(4-chlorophenyl)-1-(4-(methylsulfonyl)benzyl)-1H-indazole-3-carboxamide]", "activity at 10 µM": "201 to 300"}, {"smiles": "CC(C)c1ccc(Cn2nc(C(=O)Nc3ccc(S(C)(=O)=O)cc3)c3ccccc32)cc1", "note": "[Compound 91, 1-(4-isopropylbenzyl)-N-(4-(methylsulfonyl)phenyl)-1H-indazole-3-carboxamide]", "activity at 10 µM": "< 200"}, {"smiles": "O=C(Nc1ccc2c(c1)OCO2)c1nn(Cc2ccc(C(=O)N3CCCCC3)cc2)c2ccccc12", "note": "[Compound 93, N-(benzo[d][1,3]dioxol-5-yl)-1-(4-(piperidine-1-carbonyl)benzyl)-1H-indazole-3-carboxamide]", "activity at 10 µM": "< 200"}, {"smiles": "CS(=O)(=O)c1ccc(Cn2nc(C(=O)Nc3ccc(F)cc3)c3ccccc32)cc1", "note": "[Compound 94, N-(4-fluorophenyl)-1-(4-(methylsulfonyl)benzyl)-1H-indazole-3-carboxamide]", "activity at 10 µM": "< 200"}, {"smiles": "CS(=O)(=O)c1ccc(Cn2nc(-c3nc4ccc(Cl)cc4o3)c3ccccc32)cc1", "note": "[Compound 95, 6-chloro-2-(1-(4-(methylsulfonyl)benzyl)-1H-indazol-3-yl)benzo[d]oxazole]", "activity at 10 µM": "< 200"}, {"smiles": "CC(C)c1cccc(NC(=O)c2nn(Cc3ccc(S(C)(=O)=O)cc3)c3ccccc23)c1", "note": "[Compound 96, N-(3-isopropylphenyl)-1-(4-(methylsulfonyl)benzyl)-1H-indazole-3-carboxamide]", "activity at 10 µM": "< 200"}, {"smiles": "O=C(Nc1ccc2c(c1)OCO2)c1nn(Cc2ccncc2)c2ccccc12", "note": "[Compound 97, N-(benzo[d][1,3]dioxol-5-yl)-1-(pyridin-4-ylmethyl)-1H-indazole-3-carboxamide]", "activity at 10 µM": "< 200"}, {"smiles": "CC(C)c1nsc(NC(=O)c2nn(Cc3ccc(S(C)(=O)=O)cc3)c3ccccc23)n1", "note": "[Compound 98, N-(3-isopropyl-1,2,4-thiadiazol-5-yl)-1-(4-(methylsulfonyl)benzyl)-1H-indazole-3-carboxamide]", "activity at 10 µM": "< 200"}, {"smiles": "CS(=O)(=O)c1ccc(Cn2nc(C(=O)Nc3ccc4ncccc4c3)c3ccccc32)cc1", "note": "[Compound 99, 1-(4-(methylsulfonyl)benzyl)-N-(quinolin-6-yl)-1H-indazole-3-carboxamide]", "activity at 10 µM": "201 to 300"}, {"smiles": "O=C(Nc1ccc2c(c1)OCO2)c1nn(Cc2cccc(C(=O)N3CCOCC3)c2)c2ccccc12", "note": "[Compound 100, N-(benzo[d][1,3]dioxol-5-yl)-1-(3-(morpholine-4-carbonyl)benzyl)-1H-indazole-3-carboxamide]", "activity at 10 µM": "< 200"}, {"smiles": "CS(=O)(=O)c1ccc(Cn2nc(C(=O)Nc3ccc(S(C)(=O)=O)cc3)c3ccccc32)cc1", "note": "[Compound 101, 1-(4-(methylsulfonyl)benzyl)-N-(4-(methylsulfonyl)phenyl)-1H-indazole-3-carboxamide]", "activity at 10 µM": "< 200"}, {"smiles": "CS(=O)(=O)c1ccc(Cn2nc(C(=S)Nc3ccc4c(c3)OCO4)c3ccccc32)cc1", "note": "[Compound 102, N-(benzo[d][1,3]dioxol-5-yl)-1-(4-(methylsulfonyl)benzyl)-1H-indazole-3-carbothioamide]", "activity at 10 µM": "201 to 300"}]}]}
